# Measurements taken from patent US20170209468A1, “POLY(BETA-AMINO ESTER) CONJUGATES FOR CARTILAGE AGENT DELIVERY AND METHODS” (University College Cardiff Consultants Limited, priority 2014, published 2017).
# Test system: chondrocytes
# Experiment: Viability of chondrocytes after exposure (MTT and LDH assays)
# Assay type: cell-based, bovine
# Settings: 15 μl of DEX 4 mg/ml solution per 1 ml well, up to 3 days
# Procedure: The cartilage samples as described in Example 4 underwent a 1 hour predigestion stage with 0.4% w/v pronase (Sigma, UK), dissolved in 4-(2-hydroxyethyl)-1-piperazineethanesulfonic acid (HEPES)-buffered DMEM (Gibco, UK) supplemented with 50 U/50 mg/mL penicillin-streptomycin (Sigma Aldrich) and 2.5 mg/mL amphotericin B. Cartilages samples were placed in sterile eppendorfs containing the filter-sterilized enzyme solution by passage through a […] filter at a concentration of 1 ml solution for 5 cartilage extracts. The samples were incubated at 37° C. and the cartilage fragments were then washed twice with sterile PBS and digested with 1 ml each 6 cartilage sample of collagenase II (Sigma, UK) 0.1% w/v for 16 h at 37° C. Collagenase II was prepared in 4-(2-hydroxyethyl)-1-piperazineethanesulfonic acid (HEPES)-buffered DMEM (Gibco, UK) supplemented with 50 U/50 mg/mL penicillin-streptomycin (Sigma Aldrich and filter sterilised. […]
# Chondrocytes viability was assessed through MTT and LDH assay kits (Sigma, UK) according to manufacturer's protocols. […]
smiles,measurement,value
"C[C@@H]1C[C@H]2[C@@H]3CCC4=CC(=O)C=C[C@]4(C)[C@@]3(F)[C@@H](O)C[C@]2(C)[C@@]1(O)C(=O)COP(=O)(O)O [DEX-P, dexamethasone phosphate]",chondrocytes viability (MTT and LDH),same viability
